Data as given in patent US7816099B1, “Enzyme assay and use thereof” (Myrexis, Inc., priority 2005, dated 2010).

Experiments:
Aurora-A = molecular target: T1, Aurora-A (Homo sapiens, UniProt O14965); assay: High throughput fluorometric assay for the TPX2-stimulated protein kinase activity of Aurora-A; format: biochemical; conditions: FIG. 4E; wild type or D274A mutant enzyme at 25 nM or 1.25 μM ADP; 5 μM ATP, 10 mM MgCl2
T1 construct: Aurora-A(101-403) (the latter protein was generated by cleavage of the GST fusion precursor with thrombin); GST (cleaved yes); made in house
T1 sequence (O14965 101-403): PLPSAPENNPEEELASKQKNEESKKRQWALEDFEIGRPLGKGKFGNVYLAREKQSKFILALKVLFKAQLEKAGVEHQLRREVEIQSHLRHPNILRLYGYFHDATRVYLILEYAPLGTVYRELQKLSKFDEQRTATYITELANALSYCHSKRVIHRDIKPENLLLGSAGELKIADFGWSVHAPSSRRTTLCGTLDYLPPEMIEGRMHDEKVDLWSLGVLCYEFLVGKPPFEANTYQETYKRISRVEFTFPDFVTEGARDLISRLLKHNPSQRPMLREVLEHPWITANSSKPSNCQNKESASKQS
T1 sequence (Q9ULW0 1-50 partner limits assumed): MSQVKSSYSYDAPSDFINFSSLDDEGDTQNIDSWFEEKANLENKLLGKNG
Procedure: High throughput fluorometric assay for the TPX2-stimulated protein kinase activity of Aurora-A. All the experiments were conducted using 50 mM Tris-HCl, pH 7.5, 5 μM ATP, 10 mM MgCl2 as the assay buffer. The data shown on FIGS. 4A and 4B were generated using two-step assay procedure including Aurora-A-catalyzed kinase reaction followed by the assay of ADP produced. All other experiments were performed using single step assay format. FIG. 4A, comparative analysis of kinase activities of the wild type enzyme and D274A mutant protein performed in the absence of TPX-2. FIG. 4B, effects of GST-TPX2(1-50) on kinase activity. FIG. 4C, time course of signal development for the assays conducted using 25 nM kinase in the absence or in the presence of 50 nM GST-TPX2(1-50). The D274A mutant enzyme was used as negative control. FIG. 4D, time dependence of S/B ratio calculated using data shown on FIG. 4C. The background was defined as the fluorescence intensity of the samples supplemented with the mutant Aurora-A. FIG. 4E, inhibition of Aurora-A activity by staurosporine. The assays were performed using wild type or D274A mutant enzyme at 25 nM concentrations or 1.25 μM ADP. FIG. 4F, SDS-PAGE analysis of the recombinant GST-TPX2(1-50) and Aurora-A(101-403) (the latter protein was generated by cleavage of the GST fusion precursor with thrombin).

Mst4 kinase = molecular target: T2, Mst4 kinase (Homo sapiens, UniProt Q9P289); assay: High throughput assay for the Mst4 protein kinase activity; format: biochemical; conditions: FIG. 5C; 25 nM protein kinase; 1.25 μM ADP in control samples
T2 construct: SDS-PAGE analysis of GST-Mst4(1-317) purified from bacterial cells; made in house; host or cells: bacterial cells
T2 sequence (Q9P289 1-317): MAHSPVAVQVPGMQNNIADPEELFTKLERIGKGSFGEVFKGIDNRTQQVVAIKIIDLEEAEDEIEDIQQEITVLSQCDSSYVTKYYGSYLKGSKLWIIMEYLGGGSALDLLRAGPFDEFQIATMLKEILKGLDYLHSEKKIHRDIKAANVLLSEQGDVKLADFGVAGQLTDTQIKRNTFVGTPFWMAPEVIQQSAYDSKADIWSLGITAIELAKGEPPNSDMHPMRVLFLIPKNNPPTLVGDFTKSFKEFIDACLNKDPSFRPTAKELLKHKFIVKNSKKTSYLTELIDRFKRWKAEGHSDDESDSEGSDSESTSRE
Procedure: High throughput assay for the Mst4 protein kinase activity. […] FIG. 5C, inhibition of Mst4 kinase by staurosporine. The assay was performed using 25 nM protein kinase. The combination of Mst4 and ATP was substituted with 1.25 μM ADP in control samples.

SMILES: CN[C@@H]1C[C@H]2O[C@@](C)([C@@H]1OC)n1c3ccccc3c3c4c(c5c6ccccc6n2c5c31)C(=O)NC4 [staurosporine]
- inhibition of Aurora-A activity (Aurora-A): inhibition
- inhibition of Mst4 kinase (Mst4 kinase): inhibition
